Reference: US20240011030A1, “TREATMENTS FOR RETINAL DEGENERATIVE DISEASES” (Novartis AG, priority 2020, published 2024)

Legend:
Type in all cases: cell-based, human
DDX58/RIG-I [1] = test: CRISPR/Cas9 KO, IFNβ secretion by ELISA after nucleic acid stimulation; conditions: ARPE19-Cas9 cells, 0.25 μg/ml nucleic acid for 24 hours, FIG. 4A
Procedure: Further validation of the importance of RIG-I as an intracellular nucleic acid sensor was performed using CRISPR/Cas9 KO experiments in ARPE-19 cells. An ARPE-19 cell line stably expressing Cas9 (ARPE19-Cas9) was generated, along with control gRNA and RIG-I gRNA-transduced cell lines. ARPE-19 control gRNA and ARPE-19 RIG-I gRNA cells were generated by sgRNA expression in ARPE-19-Cas9 cells by lentiviral infection. The sgRNA sequence targeting DDX58/RIG-I was 5′-[…]-3′ (SEQ ID NO:1). Control sgRNA sequences used were: 5′-[…]-3′ (SEQ ID NO:8), 5′-[…]-3′ (SEQ ID NO:9), 5′-[…]-3′ (SEQ ID NO:10), and 5′-[…]-3′ (SEQ ID NO: 11). […] All cells were stimulated with 0.25 μg/ml nucleic acid for 24 hours, after which IFNβ secretion was measured by ELISA.
ARPE-19 cells stably expressing the Cas9 gene (ARPE19-Cas9) were generated by lentiviral transduction of ARPE-19 cells. […]
For ELISA, assays were run using Meso Scale Discovery plates (Meso Scale Diagnostics, Rockville, MD). […] Lysates or conditioned media were measured in 384-well plates using antibody pairs for ISG15 (R&D #AF4845, #A-830), IFNβ (R&D #DY814), IFNα1 (abcam #ab215408), IFNγ (R&D #DY285B), IFNλ1/3 (R&D #DY1598B), and cGAS (Cayman #23853, CST #66546). Protein levels were measured according to manufacturer instructions, and detected on a Meso Sector S 600 imager.

DDX58/RIG-I [2] = test: CRISPR/Cas9 KO, IL-6 secretion by ELISA after nucleic acid stimulation; conditions: ARPE-19-RIG-I KO, 0.25 μg/ml nucleic acid for 24 hours, FIG. 4B
Procedure: In addition to the type I IFN response, nucleic acid sensing can also activate NFκB-dependent cytokine release. IL-6 secretion was measured in ARPE19-Cas9, Control gRNA, and RIG-I gRNA cell line cultures 24 hours after nucleic acid stimulation to evaluate nucleic acid-induced NFκB activation in RPE cells. All cells were stimulated with 0.25 μg/ml nucleic acid for 24 hours, after which IL-6 secretion was measured by ELISA.
(§1) ARPE-19 cells stably expressing the Cas9 gene (ARPE19-Cas9) were generated by lentiviral transduction of ARPE-19 cells. Virus was harvested from supernatants of HEK-293T cells (ATCC) cotransfected with the in-house lentiviral vector pNGx_LV_c010 (39) and Lentiviral Packaging Plasmid Mix (Cellecta, Mountain View, CA; #CPCP-K2A) using TransIT-293 Transfection Reagent (MirusBio, Madison, WI). ARPE19-Cas9 cells were selected with 125 μg/mL HygromycinB (Invitrogen, Carlsbad, CA) and Cas9 expression was verified by western blot using Anti-FLAG primary antibody (Sigma-Aldrich #F1804). ARPE-19 RIG-I KO cells were generated by sgRNA expression in ARPE-19-Cas9 cells by lentiviral infection using the in-house lentiviral vector pNGx_LV_g003 (39). The sgRNA sequence targeting DDX58/RIG-I is 5′-[…]-3′ (SEQ ID NO: 1).

DDX58/RIG-I [3] = test: anti-RIG-I/DDX58 western blot verifying knockout; conditions: ARPE-19-Cas9 cells transduced with gRNA, FIG. 10D
Procedure: as §1, with “1). Control sgRNA sequences were:” for “1).”
Knockout was verified by western blot (FIG. 10D).
For western blot, samples (30 μg of protein) were dissolved in sample buffer (Invitrogen) and boiled for 5 min at 100° C. The sample was then separated by Criterion™ TGX™ precast gel electrophoresis and electrotransferred onto nitrocellulose membranes (Bio-Rad, Hercules, CA). […] The immuno-reactive proteins were detected using SuperSignal™ West Femto Maximum sensitivity substrate (ThermoFisher Scientific) and imaged on FluorChem M (ProteinSimple, San Jose, CA).

RPE cells = test: ISG15 induction by IFN stimulation (ELISA); conditions: THP1, ARPE-19 or iPS-RPE cells, IFNs up to 100 μg/ml, 24 hours, FIGS. 2D to 2F
Procedure: To test whether IFNs can induce an IFN response and, if so, which IFNs can induce an IFN response, cells were treated with different IFNs (IFNα1, IFNβ, IFNγ, or IFNλ1/2/3), and ISG15 induction was measured. Cells were treated with different IFN types at 100 ng/ml each (FIG. 2D) or 0 ng/ml IFN, 0.1 ng/ml IFN, 1 ng/ml IFN, 10 ng/ml IFN, or 100 ng/ml IFN (FIGS. 2E and 2F). ISG15 expression in was detected by ELISA 24 hours after treatment as described above, using antibody pairs for ISG15 (R&D #AF4845, #A-830).
For ELISA, assays were run using Meso Scale Discovery plates (Meso Scale Diagnostics, Rockville, MD). Lysates were extracted using cell lysis buffer (CST #9803), and supplemented with protease and phosphatase inhibitors. Lysates or conditioned media were measured in 384-well plates using antibody pairs for ISG15 (R&D #AF4845, #A-830), IFNβ (R&D #DY814), IFNα1 (abcam #ab215408), IFNγ (R&D #DY285B), IFNλ1/3 (R&D #DY1598B), and cGAS (Cayman #23853, CST #66546). Protein levels were measured according to manufacturer instructions, and detected on a Meso Sector S 600 imager.

| Molecule | IFNβ secretion response to all nucleic acid species tested (DDX58/RIG-I [1]) | poly(I:C)-induced IL-6 release (DDX58/RIG-I [2]) | DDX58 protein by western blot (DDX58/RIG-I [3]) | ISG15 induction in response to IFN stimulation (RPE cells) |
| --- | --- | --- | --- | --- |
| 5′-ACTCACCCTCCCTAAACCAG-3′ (expressed or natural sequence) [RIG-I gRNA] | completely abrogated | only partially reduced | lack of detectable DDX58 protein |  |
| IFNα: type I interferon purchased from R&D Systems (protein, UniProt P01562 24-189, looked up) Interferon alpha-1/13: CDLPETHSLDNRRTLMLLAQMSRISPSSCLMDRHDFGFPQEEFDGNQFQKAPAISVLHELIQQIFNLFTTKDSSAAWDEDLLDKFCTELYQQLNDLEACVMQEERVGETPLMNADSILAVKKYFRRITLYLTEKKYSPCAWEVVRAEIMRSLSLSTNLQERLRRKE |  |  |  | primarily responded |
